# Laboratory results published in PMC7479175, “Selection of Potent Inhibitors of Soluble Epoxide Hydrolase for Usage in Veterinary Medicine” (Frontiers in Veterinary Science, 2020).
# Read-outs that look alike come from different tables or passages of the source.
# Legend:
# [1] = biological target: T1, sEH activity from liver cytosol of Mouse (Mus musculus, UniProt P34914); assay: sEH inhibition potency (IC50), radioactive assay with [3H]t-DPPO, liver cytosol; format: biochemical; conditions: [3H]t-DPPO ([S]final = 5 μM) as substrate
# T1 construct: The radioactive fluorescent assay was used with the liver crude extracts; from tissue; host or cells: mouse liver cytosol (100,000 g supernatant)
# T1 sequence (P34914 1-554): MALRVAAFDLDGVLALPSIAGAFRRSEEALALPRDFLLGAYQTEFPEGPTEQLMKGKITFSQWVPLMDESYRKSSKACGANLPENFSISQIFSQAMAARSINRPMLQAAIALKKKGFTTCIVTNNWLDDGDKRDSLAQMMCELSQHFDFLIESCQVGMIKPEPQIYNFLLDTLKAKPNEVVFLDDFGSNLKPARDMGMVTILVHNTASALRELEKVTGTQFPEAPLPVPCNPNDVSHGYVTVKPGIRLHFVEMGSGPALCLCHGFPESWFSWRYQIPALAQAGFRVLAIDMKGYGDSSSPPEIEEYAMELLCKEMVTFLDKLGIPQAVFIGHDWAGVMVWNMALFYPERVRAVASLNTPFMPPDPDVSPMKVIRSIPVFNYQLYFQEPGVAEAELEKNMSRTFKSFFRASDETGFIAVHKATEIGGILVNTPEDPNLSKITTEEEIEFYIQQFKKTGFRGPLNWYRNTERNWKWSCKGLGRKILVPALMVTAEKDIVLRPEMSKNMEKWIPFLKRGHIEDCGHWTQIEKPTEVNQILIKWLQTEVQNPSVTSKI
# [2] = system: horses with chronic laminitis; conditions: 0.1–1 mg/kg i.v., ref [11]–[13]; cited from earlier work
# [3] = Solubility of inhibitors in different solvents; format: physicochemical; conditions: thermodynamic from solid
# Experimental: The un-dissolved compounds were filtered through a 0.22 μm centrifuge filter at 30 or 40°C and the supernatant further diluted 10-fold with methanol. The concentration of t-TUCB in the samples was determined by LC/MS/MS analysis as previously described ([15]).
# dogs with osteoarthritis = system: dogs with osteoarthritis; design: method as in PMID 31214021; conditions: ref [14]; cited from earlier work
smiles,measurement,setting,value
"N#CNC(=O)CCCCCCCCCCCNC(=O)NC12CC3CC(CC(C3)C1)C2 [1,845]",IC50,[1],17 nM
"O=C(NCCCCOc1ccc(F)cc1)NC12CC3CC(CC(C3)C1)C2 [1,707]",IC50,[1],10 nM
"O=C(Nc1ccc(OC(F)(F)F)cc1)N[C@H]1CC[C@H](Oc2ccc(C(=O)O)cc2)CC1 [1,728, trans-4-{4-[3-(4-trifluoromethoxy-phenyl)-ureido]-cyclohexyloxy}-benzoic acid]",adverse effects,[2],without observed adverse effects
same,reduction in pain,[2],significant and rapid reduction in pain
same,solubility at 24 h,"[3]; aqueous buffer, Phosphate Buffer (0.1 M pH 7.4), 30°C, read-out: Solubility",0.011 mM
same,solubility at 24 h,"[3]; aqueous buffer, Phosphate Buffer (0.1 M pH 7.4), 40°C, read-out: Solubility in mg/mL",0.01 mg/mL
same,solubility at 24 h,"[3]; aqueous with cosolvent or surfactant or cyclodextrin, Tween 80, 30°C, read-out: Solubility",18 mM
same,solubility at 24 h,"[3]; aqueous with cosolvent or surfactant or cyclodextrin, Tween 80, 40°C, read-out: Solubility",34 mM
same,solubility at 24 h,"[3]; oil or lipid, Oleic rich oil, 30°C, read-out: Solubility",0.31 mM
same,solubility at 24 h,"[3]; oil or lipid, Oleic rich oil, 30°C, read-out: Solubility in mg/mL",0.13 mg/mL
same,solubility at 24 h,"[3]; oil or lipid, Oleic rich oil, 40°C, read-out: Solubility in mg/mL",0.1 mg/mL
same,solubility at 24 h,"[3]; organic solvent or mixture, Carbitol, 30°C, read-out: Solubility",83 mM
same,solubility at 24 h,"[3]; organic solvent or mixture, Carbitol, 30°C, read-out: Solubility in mg/mL",37 mg/mL
same,solubility at 24 h,"[3]; organic solvent or mixture, DMSO, 30°C, read-out: Solubility",299 mM
same,solubility at 24 h,"[3]; organic solvent or mixture, DMSO, 30°C, read-out: Solubility in mg/mL",131 mg/mL
same,solubility at 24 h,"[3]; organic solvent or mixture, DMSO, 40°C, read-out: Solubility",580 mM
same,solubility at 24 h,"[3]; organic solvent or mixture, DMSO, 40°C, read-out: Solubility in mg/mL",254 mg/mL
same,solubility at 24 h,"[3]; organic solvent or mixture, Ethanol, 30°C, read-out: Solubility",9 mM
same,solubility at 24 h,"[3]; organic solvent or mixture, Ethanol, 30°C, read-out: Solubility in mg/mL",4 mg/mL
same,solubility at 24 h,"[3]; organic solvent or mixture, Ethanol, 40°C, read-out: Solubility",32 mM
same,solubility at 24 h,"[3]; organic solvent or mixture, Ethanol, 40°C, read-out: Solubility in mg/mL",14 mg/mL
same,solubility at 24 h,"[3]; organic solvent or mixture, Glycerol, 30°C, read-out: Solubility",0.13 mM
same,solubility at 24 h,"[3]; organic solvent or mixture, Glycerol, 30°C, read-out: Solubility in mg/mL",0.06 mg/mL
same,solubility at 24 h,"[3]; organic solvent or mixture, Glycerol, 40°C, read-out: Solubility",0.41 mM
same,solubility at 24 h,"[3]; organic solvent or mixture, Glycerol, 40°C, read-out: Solubility in mg/mL",0.18 mg/mL
same,solubility at 24 h,"[3]; organic solvent or mixture, PEG200, 30°C, read-out: Solubility",195 mM
same,solubility at 24 h,"[3]; organic solvent or mixture, PEG200, 30°C, read-out: Solubility in mg/mL",85 mg/mL
same,solubility at 24 h,"[3]; organic solvent or mixture, PEG200, 40°C, read-out: Solubility",207 mM
same,solubility at 24 h,"[3]; organic solvent or mixture, PEG200, 40°C, read-out: Solubility in mg/mL",91 mg/mL
same,solubility at 24 h,"[3]; organic solvent or mixture, PEG300, 40°C, read-out: Solubility",254 mM
same,solubility at 24 h,"[3]; organic solvent or mixture, PEG300, 40°C, read-out: Solubility in mg/mL",111 mg/mL
same,solubility at 24 h,"[3]; organic solvent or mixture, PEG400, 30°C, read-out: Solubility",40 mM
same,solubility at 24 h,"[3]; organic solvent or mixture, PEG400, 30°C, read-out: Solubility in mg/mL",18 mg/mL
same,solubility at 24 h,"[3]; organic solvent or mixture, PEG400, 40°C, read-out: Solubility",57 mM
same,solubility at 24 h,"[3]; organic solvent or mixture, PEG400, 40°C, read-out: Solubility in mg/mL",25 mg/mL
same,solubility at 24 h,"[3]; organic solvent or mixture, Propylene glycol, 30°C, read-out: Solubility",9 mM
same,solubility at 24 h,"[3]; organic solvent or mixture, Propylene glycol, 30°C, read-out: Solubility in mg/mL",4 mg/mL
same,solubility at 24 h,"[3]; organic solvent or mixture, Propylene glycol, 40°C, read-out: Solubility",14 mM
same,solubility at 24 h,"[3]; organic solvent or mixture, Propylene glycol, 40°C, read-out: Solubility in mg/mL",6 mg/mL
same,solubility at 24 h,"[3]; organic solvent or mixture, Tween 80, 30°C, read-out: Solubility in mg/mL",8 mg/mL
same,solubility at 24 h,"[3]; organic solvent or mixture, Tween 80, 40°C, read-out: Solubility in mg/mL",15 mg/mL
same,solubility at 24 h,"[3]; organic solvent or mixture, such as Carbitol and polyethylene glycol (PEG), read-out: solubility in numerous organic liquids used in the formulation of drugs",> 20 mg/mL
same,pain perception,dogs with osteoarthritis,able to reduce pain perception
